In series [1] the target is T1, Cytochrome P450 2A6 (Homo sapiens, UniProt P11509).
T1 sequence (P11509 whole entry): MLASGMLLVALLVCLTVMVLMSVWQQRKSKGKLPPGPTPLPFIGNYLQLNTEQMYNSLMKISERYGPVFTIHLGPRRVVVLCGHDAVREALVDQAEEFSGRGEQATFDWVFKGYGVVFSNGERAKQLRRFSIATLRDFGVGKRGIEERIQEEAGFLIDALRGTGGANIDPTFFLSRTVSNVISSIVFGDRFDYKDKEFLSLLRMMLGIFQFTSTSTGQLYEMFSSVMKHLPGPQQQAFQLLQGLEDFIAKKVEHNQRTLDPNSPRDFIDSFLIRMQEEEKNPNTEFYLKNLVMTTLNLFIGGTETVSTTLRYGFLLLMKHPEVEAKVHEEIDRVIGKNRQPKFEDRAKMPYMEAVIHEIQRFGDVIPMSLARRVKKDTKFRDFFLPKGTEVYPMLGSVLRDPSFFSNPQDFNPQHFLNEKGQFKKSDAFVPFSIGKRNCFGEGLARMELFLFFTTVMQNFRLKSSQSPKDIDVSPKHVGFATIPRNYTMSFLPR
Put plainly: Binding affinity to synthetic N-terminal truncated CYP2A6 (unknown origin) assessed as occurrence of type-1 binding by spectral interaction analysis.

Series [2] has as its target Acetylcholine-binding protein (Lymnaea stagnalis) (UniProt P58154). Nature of the series: Binding affinity to Lymnaea stagnalis nicotinic acetylcholine receptor by fluorescence based assay. The format is single protein.
The target of series [3] is T2, CYP2A6 (Homo sapiens, UniProt P11509).
T2 sequence (P11509 whole entry): T1 sequence (P11509 whole entry)
Nature of the series: (§1) Binding affinity to synthetic N-terminal truncated CYP2A6 (unknown origin) assessed as effect on type-1 spectral shift lambda(max) by measuring displacement of coumarin at 100 uM preincubated with […] coumarin by spectral interaction analysis. The note with it: synthetic N-terminal truncated CYP2A6, probe coumarin, […].

The target in series [4] is T2, CYP2A6. Put plainly: (§2) Binding affinity to synthetic N-terminal truncated CYP2A6 (unknown origin) assessed as effect on type-1 spectral shift lambda(min) by measuring displacement of coumarin at 100 uM preincubated with […] coumarin by spectral interaction analysis. The settings on record: synthetic N-terminal truncated CYP2A6, probe coumarin, […].
Series [5] deals with Acetylcholine-binding protein (Lymnaea stagnalis) (UniProt P58154). Put plainly: Displacement of [125I]bungarotoxin from Lymnaea stagnalis nicotinic acetylcholine receptor assessed as residual radioligand binding relative to control.
Sequence of Acetylcholine-binding protein (Lymnaea stagnalis) (P58154 whole entry): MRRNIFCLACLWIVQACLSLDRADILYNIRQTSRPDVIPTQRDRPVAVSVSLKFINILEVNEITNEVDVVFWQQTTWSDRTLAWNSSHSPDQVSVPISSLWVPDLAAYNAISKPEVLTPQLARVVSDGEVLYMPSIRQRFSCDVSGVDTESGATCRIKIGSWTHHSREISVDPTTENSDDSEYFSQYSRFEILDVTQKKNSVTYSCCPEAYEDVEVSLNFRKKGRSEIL
Series [6] concerns the target T1, Cytochrome P450 2A6. Nature of the series: Inhibition of human CYP2A6 expressed in insect cell membranes assessed as reduction in enzyme-mediated coumarin 7-hydroxylation at 400 uM in presence of glucose-6-phosphate, glucose-6-phosphate dehydrogenase and NADPH-generating system by fluorometry.
For series [7], the target named is T1, Cytochrome P450 2A6. The series is described as §1. The note with it: 100 µM.
Series [8] deals with T1, Cytochrome P450 2A6. The description is as §2. The note with it: 100 µM.
Series [9] relates to Rattus norvegicus. Put plainly: Reduction of nicotine self-administration in nicotine-addicted Wistar rat at 16 mg/kg dosed on day 50 following self-administration of nicotine across 23 hrs period each day for 49 days and measured on day 51 and 52 relative to control. The class given is ADME, organism-based. The note with it: in vivo.
Series [10] has as its system Rattus norvegicus. Put plainly: Reduction of nicotine self-administration in nicotine-addicted Wistar rat at 15 mg/kg dosed on day 50 following self-administration of nicotine across 23 hrs period each day for 49 days relative to control. The class given is ADME, organism-based. Set-up: scale not given: the % may be the effect or the level left. The settings on record: in vivo.

Series [11] relates to Rattus norvegicus. Put plainly: Reduction of nicotine self-administration in nicotine-addicted Wistar rat at 15 mg/kg dosed on day 50 following self-administration of nicotine across 23 hrs period each day for 49 days and measured on day 51 and 52 relative to control. The format is ADME, organism-based. The note with it: in vivo.

22 molecules from ChEMBL document CHEMBL4421730, “Synthetic compounds and derivatives as modulators of smoking or nicotine ingestion and lung cancer” (2013) can be followed below.

The structures appear in SMILES notation. Active and inactive are the calls of the source. The calls are words filed in the database; no cut-off is given here.

`Cc1cscc1-c1ccccc1`: the result in series [1] was Active. On the same count and under the same terms, then `c1ccc(-c2ccsc2)cc1`, with “Active”. Consider `Cc1cn(-c2cccnc2)cn1`, for which the outcome in [2] was Active. With `SCc1ccc(-c2cccnc2)o1`, the Activity result in [1] is on record as “Not Active”. Besides, the inhibition at 100 µM in series [3] and in [4] was 100% in each case.

Regarding `NCC1CCC(c2cccnc2)O1` (mixture of isomers), the Activity in series [5] was 30%. Further, in [2], the outcome was Active. For `Cc1csc(-c2cccnc2)n1`, in series [1], the result was Active. On to `c1cncc(-n2cnnn2)c1`, for which, in [6], the “inhibition (INH)” value was “Active”. As to `CC(=O)SCc1ccc(-c2cccnc2)o1`, the Activity result in series [1], in [7] and in [8] was “Not Active” throughout. With `Cl.Cl.NCc1ccc(-c2cccnc2)o1`, the Activity entry in series [9] was “Toxic”.

Regarding `N[C@@H]1C[C@H]1c1ccccc1.N[C@H]1C[C@@H]1c1ccccc1`, in series [2], the outcome was Active. Still for that read-out and setting: next, `OCC1CCC(c2cccnc2)O1` (configuration not stated): “inactive”; `CCC1CCC(c2cccnc2)O1` (configuration not stated): “inactive”. For `NC[C@@H]1CC[C@@H](c2cccnc2)O1` (relative stereo), the Activity in [5] came out at 25%. The result in series [2] was Active. With `c1cncc(-c2cccs2)c1`, the outcome in [2] was Active. On to `Cc1ccsc1-c1ccc(F)nc1`, for which the outcome in [1] was Active. In the case of `c1cncc(-c2cccnc2)c1`, the outcome in [2] was Active.

`CN(C)CC#Cc1cccnc1`: in series [1], the Activity result was “Not Active”. On the same count and under the same terms, next, `Cc1ccsc1-c1cccnc1`: “Active”. With `Cc1cscc1-c1cccnc1`, the result in series [2] was Active. As to `BrCC1CCC(c2cccnc2)O1` (configuration not stated), the result in [2] was Active. With `Cl.Cl.c1cncc(-c2c[nH]cn2)c1`, the Activity in series [10] was 40%; in series [11], “Toxic”. Besides, the outcome in series [2] was inactive. Consider `O=Cc1ccc(-c2cccnc2)o1`, for which the Activity result in series [1] is “Not Active”. In addition, the inhibition at 100 µM in series [3] and in series [4] was 100% in each case.

As usually defined, the inhibition is the share of the control response that was lost under treatment.
